# “And” between values parts separate entries of the source, which are not always exact repeats. Equal values may be shown once. Read-outs that look alike come from different tables or passages of the source.
# What was measured:
# [1] = tested on: human HBCx-34 breast tumor xenograft; experiment: Antitumor efficacy in HBCx-34 patient-derived breast cancer xenograft (study XTS-1521); format: in vivo, mouse
# Method: Antitumor efficacy of an HER2/HER3 targeting antibody was determined in the context of a combination treatment together with an aromatase inhibitor. […] It was used as single agent and in combination with the aromatase inhibitor Letrozole. The hormone-dependent HBCx-34 patient-derived breast cancer xenograft model established in immunodeficient mice was used as an example of a breast cancer.
# The HBCx-34 PDX model was derived from a treatment-naïve primary breast infiltrating ductal carcinoma.
# Tumor-bearing mice received estrogen diluted in drinking water (β-oestradiol, 8.5 mg/l), from the date of tumor implant to the date of inclusion. During the treatment period, mice were not supplemented with estrogen.
# Tumors of the same passage were transplanted subcutaneously onto 6-24 mice (donor mice, passage (n−1)). When these tumors reached 1000 to 2000 mm^3, donor mice were sacrificed by cervical dislocation, tumors were aseptically excised and dissected. After removing necrotic areas, tumors were cut into fragments measuring approximately 20 mm^3 and transferred in culture medium before grafting.
# 95 mice were anaesthetized with 100 mg/kg ketamine hydrochloride (batch 5D92, Exp: 2017/03, Virbac) and 10 mg/kg xylazine (batch KP0AX9X, Exp: 2017/08, Bayer), and then skin was aseptized with a chlorhexidine solution, incised at the level of the interscapular region, and a 20 mm^3 tumor fragment was placed in the subcutaneous tissue. Skin was closed with clips. All mice from the same experiment were implanted on the same day.
# Treatments were randomly attributed to boxes housing up to 5 mice and were initiated 36 days post implantation of the tumor (42% inclusion rate). The study was terminated following 57 days after the start of treatment.
# Tumor volume was evaluated by measuring tumor diameters, with a calliper, biweekly during the experimental period.
# The formula TV (mm3)=[length (mm)×width (mm)2]/2 was used, where the length and the width are the longest and the shortest diameters of the tumor, respectively.
# A total of 4 groups were used as summarized in the scheme below. Each group initially included 10 mice.
# All treatment doses were body weight adjusted at each injection.
# HBCx-34 tumors = experiment: In vivo growth characteristics of the HBCx-34 PDX model (FIG. 4); parameters: species or system mouse; details: animals that did not receive estrogens, vs vehicle
# Method: FIG. 4. In vivo growth characteristics of the HBCx-34 PDX model. A, IHC characteristics of HBCx-34 PDX tumors. B, Athymic nude mice were engrafted s.c. with HBCx-34 tumors. […] T-tests were performed to compare tumor volumes from estrogen-independent tumors treated with vehicle or Letrozole (*, p<0.05, **, p<0.01, ***, p<0.001).
# HBCx-34 PDX model = details: model characterisation; cited from earlier work
# [2] = MCLA-128 25 mg/kg i.p., Letrozole […] p.o. qdx57, day of maximum as in text
# [3] = MCLA-128 25 mg/kg IP, Letrozole […] PO qdx57
compound,measurement,setting,value
N#Cc1ccc(C(c2ccc(C#N)cc2)n2cncn2)cc1 [Letrozole],Dunn's Multiple Comparison Test on relative body weight,"DAY 25, vs MCLA-128 25",* (* = P < 0.05)
same,Dunn's Multiple Comparison Test on relative body weight,"DAY 28, vs Vehicle MCLA-128",* (* = P < 0.05)
same,Dunn's Multiple Comparison Test on relative body weight,"DAY 32, vs MCLA-128 25",** (** = P < 0.01)
same,Dunn's Multiple Comparison Test on relative body weight,"DAY 32, vs Vehicle MCLA-128",** (** = P < 0.01)
same,Dunn's Multiple Comparison Test on relative body weight,"DAY 35, vs MCLA-128 25",* (* = P < 0.05)
same,Dunn's Multiple Comparison Test on relative body weight,"DAY 35, vs Vehicle MCLA-128",** (** = P < 0.01)
same,Dunn's Multiple Comparison Test on relative body weight,"DAY 39, vs MCLA-128 25",** (** = P < 0.01)
same,Dunn's Multiple Comparison Test on relative body weight,"DAY 39, vs Vehicle MCLA-128",** (** = P < 0.01)
same,Dunn's Multiple Comparison Test on relative body weight,"DAY 42, vs Vehicle MCLA-128",** (** = P < 0.01)
same,Dunn's Multiple Comparison Test on relative body weight,"DAY 46, vs MCLA-128 25",** (** = P < 0.01)
same,Dunn's Multiple Comparison Test on relative body weight,"DAY 46, vs Vehicle MCLA-128",** (** = P < 0.01)
same,Dunn's Multiple Comparison Test on relative body weight,"DAY 49, vs MCLA-128 25",** (** = P < 0.01)
same,Dunn's Multiple Comparison Test on relative body weight,"DAY 49, vs Vehicle MCLA-128",** (** = P < 0.01)
same,Dunn's Multiple Comparison Test on relative body weight,"DAY 53, vs MCLA-128 25",** (** = P < 0.01)
same,Dunn's Multiple Comparison Test on relative body weight,"DAY 53, vs Vehicle MCLA-128",** (** = P < 0.01)
same,Dunn's Multiple Comparison Test on relative body weight,"DAY 56, vs MCLA-128 25",** (** = P < 0.01)
same,Dunn's Multiple Comparison Test on relative body weight,"DAY 56, vs Vehicle MCLA-128",** (** = P < 0.01)
same,maximum individual body weight loss,[2],4.1%
same,maximum mean body weight loss,[2],no mean body weight loss
same,Mann-Whitney test on tumor volume,"[1]; DAY 25, vs vehicle group",* (* = P < 0.05)
same,Mann-Whitney test on tumor volume,"[1]; DAY 28, vs vehicle group",* (* = P < 0.05)
same,Dunn's Multiple Comparison Test on tumor volume,"[1]; DAY 32, vs MCLA-128 25",* (* = P < 0.05)
same,Mann-Whitney test on tumor volume,"[1]; DAY 32, vs vehicle group",** (** = P < 0.01)
same,Dunn's Multiple Comparison Test on tumor volume,"[1]; DAY 35, vs MCLA-128 25",** (** = P < 0.01)
same,Dunn's Multiple Comparison Test on tumor volume,"[1]; DAY 35, vs Vehicle MCLA-128",* (* = P < 0.05)
same,Mann-Whitney test on tumor volume,"[1]; DAY 35, vs vehicle group",*** (*** = P < 0.001)
same,Dunn's Multiple Comparison Test on tumor volume,"[1]; DAY 39, vs MCLA-128 25",** (** = P < 0.01)
same,Dunn's Multiple Comparison Test on tumor volume,"[1]; DAY 39, vs Vehicle MCLA-128",* (* = P < 0.05)
same,Mann-Whitney test on tumor volume,"[1]; DAY 39, vs vehicle group",*** (*** = P < 0.001)
same,Dunn's Multiple Comparison Test on tumor volume,"[1]; DAY 42, vs MCLA-128 25",** (** = P < 0.01)
same,Dunn's Multiple Comparison Test on tumor volume,"[1]; DAY 42, vs Vehicle MCLA-128",* (* = P < 0.05)
same,Mann-Whitney test on tumor volume,"[1]; DAY 42, vs vehicle group",*** (*** = P < 0.001)
same,Dunn's Multiple Comparison Test on tumor volume,"[1]; DAY 46, vs MCLA-128 25",** (** = P < 0.01)
same,Dunn's Multiple Comparison Test on tumor volume,"[1]; DAY 46, vs Vehicle MCLA-128",* (* = P < 0.05)
same,Mann-Whitney test on tumor volume,"[1]; DAY 46, vs vehicle group",*** (*** = P < 0.001)
same,Dunn's Multiple Comparison Test on tumor volume,"[1]; DAY 49, vs MCLA-128 25",** (** = P < 0.01)
same,Dunn's Multiple Comparison Test on tumor volume,"[1]; DAY 49, vs Vehicle MCLA-128",* (* = P < 0.05)
same,Mann-Whitney test on tumor volume,"[1]; DAY 49, vs vehicle group",*** (*** = P < 0.001)
same,Dunn's Multiple Comparison Test on tumor volume,"[1]; DAY 53, vs MCLA-128 25",** (** = P < 0.01)
same,Dunn's Multiple Comparison Test on tumor volume,"[1]; DAY 53, vs Vehicle MCLA-128",* (* = P < 0.05)
same,Mann-Whitney test on tumor volume,"[1]; DAY 53, vs vehicle group",*** (*** = P < 0.001)
same,Dunn's Multiple Comparison Test on tumor volume,"[1]; DAY 56, vs MCLA-128 25",** (** = P < 0.01)
same,Dunn's Multiple Comparison Test on tumor volume,"[1]; DAY 56, vs Vehicle MCLA-128",* (* = P < 0.05)
same,Mann-Whitney test on tumor volume,"[1]; DAY 56, vs vehicle group",*** (*** = P < 0.001)
same,Best T/C %,[1]; [3],18.68%
same,Best TGE %,[1]; [3],145.70%
same,T/C % (at control group day end),[1]; [3],18.68%
same,TGI % (at control group day end),[1]; [3],121.97%
same,median TGD × 3 (In days),[1]; [3],>56 days
same,tumor growth inhibition (in words),"[1]; MCLA-128 25 mg/kg i.p., Letrozole […] p.o. qdx57",statistically significant tumor growth inhibition
same,Mann-Whitney test on tumor volume: STAT,"[1]; STAT column, vs vehicle group",*** (*** = P < 0.001)
same,TFS (Tumor Free Survivor),[1]; number of complete regressions recorded up to Group Day End,1
same,CR (complete regression),[1]; number of mice with 0 to 14 mm^3 tumor size during at least 3 consecutive measurements,1/10 and 1
same,TS (Tumor Stabilization),[1]; number of mice with constant tumor size during at least 6 consecutive measurements,1
same,PR (partial regression),[1]; number of mice with tumor size lower than initial during at least 6 consecutive measurements,7/10 and 7
same,p compared to the group control by Dunn's test,[1]; tumor growth inhibition,< 0.05
same,"p compared with the vehicle group, Mann Whitney test",[1]; tumor growth inhibition,< 0.001
same,formation of estrogen-independent tumors,HBCx-34 tumors,significantly reduced the formation of estrogen-independent tumors
same,response of the HBCx-34 PDX model,HBCx-34 PDX model,low responder
